{"source": "paper PMC8071537", "key": {"P-gp [1]": {"molecular_target": "T1, P-gp (Homo sapiens, UniProt P08183)", "T1 sequence (P08183 whole entry)": "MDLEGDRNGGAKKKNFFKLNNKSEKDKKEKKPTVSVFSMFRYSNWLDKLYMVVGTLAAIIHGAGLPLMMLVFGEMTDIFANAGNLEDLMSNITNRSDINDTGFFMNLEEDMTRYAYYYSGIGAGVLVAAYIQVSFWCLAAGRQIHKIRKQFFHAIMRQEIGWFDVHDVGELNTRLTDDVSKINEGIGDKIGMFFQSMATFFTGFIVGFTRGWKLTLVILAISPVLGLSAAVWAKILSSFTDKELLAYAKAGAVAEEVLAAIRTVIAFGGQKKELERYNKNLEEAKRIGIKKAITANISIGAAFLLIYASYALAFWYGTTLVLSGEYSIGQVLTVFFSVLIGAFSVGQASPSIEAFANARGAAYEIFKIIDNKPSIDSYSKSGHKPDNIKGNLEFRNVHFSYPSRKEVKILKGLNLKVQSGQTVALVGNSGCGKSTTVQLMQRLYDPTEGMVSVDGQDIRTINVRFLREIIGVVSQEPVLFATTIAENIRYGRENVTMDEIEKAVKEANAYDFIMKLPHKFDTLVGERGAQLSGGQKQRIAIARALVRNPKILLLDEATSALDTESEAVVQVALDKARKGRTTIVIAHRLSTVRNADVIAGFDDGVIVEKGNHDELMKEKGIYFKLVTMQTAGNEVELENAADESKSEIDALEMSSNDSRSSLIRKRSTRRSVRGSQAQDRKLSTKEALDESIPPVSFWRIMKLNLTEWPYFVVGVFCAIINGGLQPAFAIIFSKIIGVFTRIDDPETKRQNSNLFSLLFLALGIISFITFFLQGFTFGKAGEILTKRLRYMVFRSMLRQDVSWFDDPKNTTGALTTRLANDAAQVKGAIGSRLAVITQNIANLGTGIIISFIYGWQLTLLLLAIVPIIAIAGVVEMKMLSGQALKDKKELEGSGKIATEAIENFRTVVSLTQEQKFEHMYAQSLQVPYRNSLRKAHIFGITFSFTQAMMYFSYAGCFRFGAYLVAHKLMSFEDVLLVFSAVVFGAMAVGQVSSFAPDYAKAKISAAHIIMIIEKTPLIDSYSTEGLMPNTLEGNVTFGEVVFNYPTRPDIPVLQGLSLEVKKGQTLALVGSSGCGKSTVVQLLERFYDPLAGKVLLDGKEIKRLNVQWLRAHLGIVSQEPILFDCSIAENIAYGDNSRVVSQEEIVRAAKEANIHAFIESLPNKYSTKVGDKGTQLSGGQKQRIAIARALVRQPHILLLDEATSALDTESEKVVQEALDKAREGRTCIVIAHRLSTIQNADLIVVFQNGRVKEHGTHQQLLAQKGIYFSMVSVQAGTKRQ", "test": "TPT accumulation by flow cytometry in P-gp-overexpressing MCF-7/ADR cells", "details": "200 μM TPT, 30 min, vs TPT-only; zosuquidar/Ko143 1 μM", "experimental": "In this study, the cells were treated with TPT or DNR after incubation with the P-gp and/or BCRP inhibitor candidates or with the excipients for 5 min. When the incubation was complete, the medium containing the substrate and inhibitor candidate or excipient was removed, and the cells were resuspended in cold phosphate buffer saline (PBS) (500 μL). TPT accumulation in the cells was measured using a flow cytometer (NovoCyte 2060R, ACEA Biosciences Inc., San Diego, CA, USA). The mean fluorescence intensity values were calculated, and at least three independent biological duplicates were performed."}, "P-gp [2]": {"molecular_target": "T1, P-gp", "details": "10 μM DNR, 30 min, vs DNR-only control; zosuquidar 1 μM", "quoted_text": "In this study, the cells were treated with TPT or DNR after incubation with the P-gp and/or BCRP inhibitor candidates or with the excipients for 5 min. When the incubation was complete, the medium containing the substrate and inhibitor candidate or excipient was removed, and the cells were resuspended in cold phosphate buffer saline (PBS) (500 μL). […] The mean fluorescence intensity values were calculated, and at least three independent biological duplicates were performed.\nSubstrate Drug Accumulation Study by Flow Cytometry\nN.Y.; Sivaraman, A.; Naik, R.; Jin, μL) with 10 μM DNR in the presence and/or absence of 1 μM zosuquidar for 30 min or\nTPT accumulation in cells resuspended in cold PBS"}, "[3]": {"set-up": "method as in PMID 8853931", "details": "humans; cited from earlier work"}, "[4]": {"set-up": "method as in PMID 8853931", "details": "lactone moiety converted to carboxylated open-ring form; cited from earlier work"}, "[5]": {"tested_on": "CYP1A2, CYP2A6, CYP2C8/9, CYP2C19, CYP2D6, CYP2E, CYP3A, or CYP4A", "set-up": "method as in earlier work", "details": "According to GlaxoSmithKline; cited from earlier work"}, "in vivo": {"test": "in vivo", "details": "male, Sprague-Dawley, rat, po, 20 mg/kg", "quoted_text": "(§1) For PK studies, the carotid artery in healthy SD rats (male, 7‒8 weeks, 220‒298 g) was catheterized one day before drug administration [29, 30, 31, 32]. Four to six rats were grouped for the oral administration of TPT (20 mg/kg) with or without compounds (2 mg/kg) in the modified Taxol® formulation and the same dose of TPT in saline only.\n(§2) The samples were chromatographically separated using a Capcell Pak C18 UG120 column (4.6 mm × 250 mm, 5 μm, Osaka Soda Co. Ltd., Osaka, Japan) with the mobile phase composed of 10 mM phosphate buffer containing 1% triethylamine (TEA) (pH 3.5) and methanol containing 1% TEA (pH 6.5) (56/44, v/v) at a flow rate of 1.0 mL/min for 30 min and detected at an excitation wavelength of 381 nm and an emission wavelength of 527 nm. The injection volume was 50 μL.\n(§3) Pheonix WinNonlin® software (version 8.1, Pharsight Corporation, Mountain View, CA, USA) was used to estimate the PK parameters following oral TPT administration to rats. Non-compartmental analysis was performed using the plasma TPT concentration–time profiles to obtain the following PK parameters: area under the plasma concentration–time curve from zero to infinity (AUCINF), elimination half-life (t1/2), apparent volume of distribution after oral administration (Vd/F), and total oral clearance (Clt/F). The maximum plasma concentration (Cmax) and the time required to reach Cmax (Tmax) were directly measured from the plasma TPT concentration–time curve. The relative BA (RB) of TPT was calculated using the Equation (1):RB (%) = (AUCINF po co-administration)/(AUCINF po control) × 100(1)"}, "[6]": {"test": "Pharmacokinetics of oral TPT in rats with or without dual inhibitor candidates or formulation", "details": "male, Sprague-Dawley, rat, in vivo, 20 mg/kg", "quoted_text": "as §1, §2, §3"}, "[7]": {"details": "in vivo, 10 mg/kg; cited from earlier work"}, "[8]": {"test": "Pharmacokinetics of oral TPT in rats with zosuquidar and/or Ko143 (Table S2)", "details": "TPT 20 mg/kg PO + Ko143 10 mg/kg", "quoted_text": "In the modified Taxol® formulation, TPT was prepared at a concentration of 2 mg/mL\nTPT was also dissolved in isotonic saline at a concentration of\nTween® 80 was dissolved in\nOral Administration and Plasma Sampling\nclaims in published maps and institu-for the oral administration of TPT (20 mg/kg) with or without zosuquidar (25 mg/kg),\nformulation. After drug administration, blood sampling was performed at 0, 0.05, 0.12,\nThe SD rats (male, 7‒8-weeks old, 235‒265 g) were divided into four groups (n = 6‒\nBlood sampling was done at 0, 0.033, 0.083,\nPheonix WinNonlin ® software (version 8.0–8.1, Pharsight Corporation, Mountain\nView, CA, USA) was used to estimate the PK parameters following oral TP T administra-\ntion in rats. Non-compartmental analysis was performed using the plasma TPT concen-\ntration–time profiles to obtain the following PK parameters: initial plasma concentration\n(C0), area under the plasma concentration–time curve from zero to infinity (AUCINF), elim-\nination half-life (t1/2), apparent volume of distribution (Vd) after oral administration (Vd/F),\ntotal clearance (Clt), and total oral clearance (Clt/F). The maximum plasma concentration\n(Cmax) and the time required to reach Cmax (Tmax) were directly determined from the plasma\nTPT concentration–time curve. The absolute BA (AB) and the relative BA (RB) of TPT were"}}, "note": "Where two headings read alike, the source gives them in different places."}
{"compound": "O[C@@H](COc1cccc2ncccc12)CN1CCN([C@@H]2c3ccccc3[C@@H]3[C@H](c4ccccc42)C3(F)F)CC1", "note": "[zosuquidar, Zosuquidar]", "values": [{"measurement": "TPT accumulation in ADR cells", "setting": "P-gp [1]", "result": "no significant difference"}, {"measurement": "increase in DNR accumulation in P-gp-overexpressing cells", "setting": "P-gp [2]", "result": "approximately three-fold increase"}]}
{"compound": "CC[C@@]1(O)C(=O)OCc2c1cc1n(c2=O)Cc2cc3c(CN(C)C)c(O)ccc3nc2-1", "note": "[TPT, Topotecan]", "values": [{"measurement": "half-life", "setting": "[3]", "result": 3, "unit": "h"}, {"measurement": "hepatic metabolism: amount of N-desmethyl TPT (of the total amount)", "setting": "[3]", "result": "< 7", "unit": "%"}, {"measurement": "oral BA of active TPT", "setting": "[3]", "result": "approximately 35%"}, {"measurement": "renal excretion (of the total administered dose)", "setting": "[3]", "result": "approximately 40%"}, {"measurement": "stability under physiological pH", "setting": "[4]", "result": "unstable"}, {"measurement": "in vitro activity of CYP1A2, CYP2A6, CYP2C8/9, CYP2C19, CYP2D6, CYP2E, CYP3A, or CYP4A", "setting": "[5]", "result": "does not alter"}, {"measurement": "AUC(0-inf)", "setting": "in vivo", "result": "2360 ± 543", "unit": "ng·h/mL"}, {"measurement": "Cmax", "setting": "in vivo", "result": "727 ± 265", "unit": "ng/mL"}, {"measurement": "Tmax", "setting": "in vivo", "result": "0.5 to 1", "unit": "h"}, {"measurement": "Vd/F", "setting": "[6]", "result": "42.1 ± 14.1", "unit": "L"}, {"measurement": "half-life", "setting": "[6]", "result": "3.39 ± 1.09", "unit": "h"}]}
{"compound": "silymarin", "values": [{"measurement": "Vd/F and Clt/F of PTX", "setting": "[7]", "result": "decreased"}]}
{"compound": "COc1ccc2c3c([nH]c2c1)[C@H](CC(C)C)N1C(=O)[C@H](CCC(=O)OC(C)(C)C)NC(=O)[C@@H]1C3", "note": "[Ko143]", "values": [{"measurement": "enhanced absorption of TPT", "setting": "[8]", "result": ">two-fold"}]}
